Drawing on PubChem BioAssay (NCI), this text covers TGI and GI50 for 17 compounds.

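Values below derive from 48-hour exposures of cells grown in 96-well plates, with endpoints linearly interpolated between the two concentrations bracketing the appropriate inhibition level. GI50 is the concentration that inhibits growth by half. TGI marks complete inhibition of growth.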 Bounds are passed on as bounds.

Test in all cases: NCI-60 cell line screen, 48 h
For assay [1], the system named is HOP-62 NSCLC.
Assay [2] has as its system OVCAR-4 ovarian.
Assay [3] concerns OVCAR-8 ovarian.
Assay [4] concerns SF-295 CNS.
Assay [5] deals with RPMI-8226 leukemia.
Assay [6] concerns EKVX NSCLC.
Assay [7] deals with HOP-92 NSCLC.
For assay [8], the system named is SN12C renal.
In assay [9] the test system is MOLT-4 leukemia.
Assay [10] has as its system COLO 205 colon.

In the case of `CCOC(=O)C(=O)C(/C(=N/N(C)C)C(=O)Nc1ccc(C)cc1C)c1nc2ccccc2[nH]c1=O` (stereo not drawn), the TGI in assay [1], in assay [2], in [3], in [4], in [5] and in assay [6] was greater than 100 µM in each case. Besides, the TGI in [7], in assay [8] and in assay [9] was greater than 100 µM in each case.
With `C[C@@]1(O)CCC[C@H]1n1c(=O)c(C(F)F)cc2cnc(NC3CCN(S(C)(=O)=O)CC3)nc21`, the GI50 in assay [1] was 2.03 µM; in assay [2], 1.76 µM; in assay [3], 2.11 µM; in [4], 1.83 µM; in assay [5], 1.11 µM; in assay [6], 1.75 µM. The GI50 was 2.04 µM in assay [7] and 2.66 µM in assay [8]. The TGI in assay [1] was greater than 100 µM; in [2], greater than 100 µM; in [3] it was greater than 100 µM; in [4], 16.2 µM; in assay [5], 8.64 µM; in assay [6], 5.92 µM. For the same compound, the TGI in assay [7] is 6.8 µM; in assay [8], greater than 100 µM.
For `CCN(CC)CCOc1ccc(Cc2ccccc2)cc1`, the GI50 in [1] was 32.4 µM; in [2], 33.5 µM; in assay [3], 60.6 µM; in [4] it was 13.2 µM; in assay [10] it was 16.1 µM; in assay [5], 20.7 µM. The figures for the GI50 in assay [6], in [7] and in assay [8] were 26.4 µM, 5.61 µM and 48.8 µM, respectively. In addition, the TGI in assay [1] was greater than 100 µM; in [2] it was greater than 100 µM; in assay [3], greater than 100 µM; in assay [4], 31.4 µM; in [10] it was 31.5 µM; in assay [5] it was 76.1 µM. Moreover, the TGI in assay [6] was greater than 100 µM; in assay [7] it was 51.1 µM; in [8] it was greater than 100 µM.
On to `C[C@H](C(O)CC(=O)C(C)(C)O)[C@H]1CC[C@@]2(C)[C@@H]3CC[C@H]4C(C)(C)[C@@H](OC5OC(COC6OC(CO)C(O)C(O)C6O)C(O)C(O)C5O)CC[C@]4(C)C3=CC[C@]12C` (stereo partly drawn), for which the TGI in assay [1], in assay [2], in [3], in assay [4], in [10] and in [5] was greater than 100 µM in each case. For the same compound, the TGI in [6], in [7] and in assay [8] was greater than 100 µM each time.
Take `CCN(CC)/[N+]([O-])=N/OCC(C)O` (stereo not drawn): the TGI in assay [1], in assay [3], in assay [4], in [6], in assay [7] and in assay [8] was greater than 100 µM each time. In assay [9], this compound gave a TGI greater than 100 µM.
Regarding `CCOc1ncnc2ccc(Cl)c(I)c12`, the TGI in assay [1], in [2], in assay [3], in assay [4], in assay [10] and in assay [5] was greater than 100 µM throughout. In addition, the TGI in assay [6] and in assay [8] was greater than 100 µM in each case.
In the case of `COC(=O)[C@H](Cc1cn(C)cn1)NC(=O)[C@@H](NC(=O)Nc1cc(C(F)(F)F)cc(C(F)(F)F)c1)C(C)(C)C`, the GI50 in assay [1], in assay [2], in assay [3], in assay [4], in [10] and in [5] was greater than 10 µM throughout. For the same compound, the GI50 in assay [8] and in [9] was greater than 10 µM throughout. Further, the TGI in assay [1], in [2], in assay [3], in assay [4], in assay [10] and in assay [5] was greater than 10 µM throughout. Besides, the TGI in assay [8] and in assay [9] was greater than 10 µM each time.
With `COc1ccc(/C=C2\CCc3ccccc3C2=O)cc1OC`, the TGI in assay [1] is greater than 100 µM; in assay [2], 79.6 µM; in assay [3], greater than 100 µM; in assay [4], 95.9 µM; in assay [10] it was 47.2 µM; in assay [5], 64.8 µM. The TGI is greater than 100 µM in assay [6], 95.7 µM in assay [8] and 71.3 µM in [9].
For the compound `COc1cc2c(cc1OC)-c1ncc3cc(OC)c(OC)c(OC)c3c1C2`, the GI50 in assay [1] was 34.8 µM; in assay [2] it was 62.6 µM; in [3] it was 12 µM; in assay [4], 18.8 µM; in assay [10] it was 27.7 µM; in assay [5], 3.4 µM. For the same compound, the GI50 in assay [6] was 22.8 µM; in [7], 15.3 µM; in assay [8] it was 14.4 µM. Besides, the TGI is 86.7 µM in assay [1]; greater than 100 µM in [2]; 43.1 µM in [3]; 53.8 µM in assay [4]; greater than 100 µM in [10]; 23.1 µM in assay [5]. The TGI is 90.1 µM in [6], greater than 100 µM in assay [7] and 47.9 µM in assay [8].
On to `O=c1c(-c2nc3ccccc3[nH]2)cc2ccccc2n1Cc1cn(Cc2ccccc2Cl)nn1`, for which the GI50 was 1.72 µM in [2]; 2.56 µM in assay [3]; 3.02 µM in assay [5]; 2.74 µM in assay [6]; 1.85 µM in assay [7]; 1.87 µM in assay [8]. Also, the GI50 in assay [9] is 2.36 µM. Besides, the TGI came to 3.44 µM in assay [2]; 9.27 µM in assay [3]; 10.8 µM in assay [5]; 20.2 µM in assay [6]; 4.93 µM in [7]; 3.75 µM in assay [8]. The TGI in assay [9] is greater than 100 µM.
For `CCC(C)(C)NS(=O)(=O)c1ccccc1`, the TGI in assay [1], in assay [2], in [3], in assay [4], in [5] and in assay [6] was greater than 100 µM each time. Moreover, the TGI in assay [9] was greater than 100 µM.
On to `COC(=O)CCCNC(=O)C(=O)c1c(O)c(O)c(C(C)C)c2cc(C)c(-c3c(C)cc4c(C(C)C)c(O)c(O)c(C(=O)C(=O)NCCCC(=O)OC)c4c3O)c(O)c12`, for which the GI50 in assay [1] is 0.942 µM; in [2], 0.23 µM; in assay [3], 0.604 µM; in assay [4], 0.25 µM; in assay [10], 0.382 µM; in assay [5] it was 0.592 µM. Besides, the GI50 is 0.317 µM in assay [6], 0.37 µM in [7] and 0.844 µM in assay [8]. In addition, the TGI was 4.21 µM in assay [1]; 27 µM in assay [2]; 2.5 µM in assay [3]; 5.22 µM in [4]; 2.03 µM in [10]; greater than 32.5 µM in assay [5]. In addition, the TGI in assay [6] came to 3.79 µM; in [7] it was 2.13 µM; in [8], 6.85 µM.
In the case of `C/C(=N\NS(=O)(=O)c1c(C)cc(C)cc1C)c1ccc[n+]([O-])n1`, the TGI in [1] is greater than 100 µM; in assay [2], 44.6 µM; in [3], 79 µM; in [4], greater than 100 µM; in assay [5], 31.4 µM; in [6], 26 µM. For the same compound, the values for the TGI in [7], in assay [8] and in assay [9] were 22.8 µM, 29.2 µM and 37 µM, respectively.
`CCOC(=O)NC(=O)c1cn(C2OC(COC(=O)CCCCCCCCC(=O)OCC3OC(n4cc(C(=O)NC(=O)OCC)c(=O)[nH]c4=O)C4OC(C)(C)OC34)C3OC(C)(C)OC32)c(=O)[nH]c1=O` (stereo not drawn): the TGI in assay [1], in [2], in [3], in assay [4], in [5] and in assay [6] was greater than 100 µM in each case. The TGI in [7], in [8] and in [9] was greater than 100 µM throughout.
For `Cn1cc2ccccc2c1-c1nc(F)nc(Nc2ccc(N)cc2)n1`, the TGI in assay [1] came out at 55.8 µM; in assay [2], 64.3 µM; in [3], 46.7 µM; in assay [4], 50.4 µM; in assay [5], 76.5 µM; in assay [6], 60.4 µM. Besides, the TGI in assay [7] worked out at 55.6 µM; in assay [8], 47.4 µM; in assay [9], 65.5 µM.
As for `Cc1ccc(-c2cc(=O)c3cc(C)c(C)c(C(=O)O)c3o2)cc1[N+](=O)[O-]`, the TGI in assay [2], in assay [3], in [4], in [10], in assay [5] and in [6] was greater than 100 µM in each case. Besides, the TGI in assay [8] and in assay [9] was greater than 100 µM each time.
On to `CC(CCC(=O)O)c1ccc(Br)cc1` (stereo not drawn), for which the TGI in assay [1], in assay [2], in assay [3], in assay [4], in assay [10] and in assay [5] was greater than 100 µM throughout. Besides, the TGI in [6], in assay [8] and in assay [9] was greater than 100 µM in each case.
